Results taken from US9951056B2, “Substituted nicotinamide inhibitors of BTK and their preparation and use in the treatment of cancer, inflammation and autoimmune disease” (BEIJING INNOCARE PHARMA TECH CO., LTD., priority 2013, dated 2018).

Molecular target: BTK (Homo sapiens (Human), UniProt Q06187)
Assay: ADP-Glo kinase biochemical assay, IC50 determination of BTK inhibitors
Conditions: ADP-Glo, ATP 50 uM; values given as bins
Experimental: Biological Properties: IC50 Determination of BTK Inhibitors in ADP-Glo Kinase Biochemical Assay
Those skilled in the art will appreciate that a variety of assay formats may be used to determine the activity of the compounds described herein.
ADP-Glo™ Kinase Assay (Cat. V9102, 10000 Tests), Components: • 1×50 ml ADP-Glo™ Reagent, • 1×100 ml Kinase Detection Buffer, • 1× Kinase Detection Substrate (Lyophilized), • 1×5 ml Ultra Pure ATP, 10 mM • 1×5 ml ADP, 10 mM
• Enzyme concentration: 8 ng/5 ul. • ATP concentration: 50 uM • Substrate (peptide) concentration: 0.2 mg/ml. • Reaction buffer composition: 40 mM Tris-HCl pH7.5, 10 mM MgCl2, 2 mM MnCl2, 0.1 mg/mL BSA, 0.05 mM DTT. • Test compound concentration: DMSO≤0.5%. Methods: Compound Dosage Gradient Solution Preparation: […]
1× and 2× assay buffer were made at first. BTK kinase was diluted with 1× assay buffer but substrate was diluted with 2× assay buffer. 1 ul of diluted compound was transferred into 384-well assay plate, and then 2.0 ul of enzyme solution was added, and spun at 2000 rpm for 1 min. This mixture was incubated at 24° C. for 30 mins. 2 ul of peptide substrate/ATP mixture was added into the assay plate to start the reaction. The mixture was mixed thoroughly and then the 384-well plate was spun and incubated at 24° C. for 60 mins. 5.0 ul of ADP-Glo Reagent was added to stop the kinase activity and deplete the ATP unconsumed, and the plate was mixed thoroughly and incubated at 24° C. for 40 min. Then, 10.0 ul of Kinase Detection reagent was added, and the plate was centrifuged and then kept at 24° C. for 30 min. The luminescence signal was read on Envision.
IC50 values of compounds were calculated from a 4-parameter fit using Equation (2): Y=Bottom+(TOP-Bottom)/(1+((C/X)^hillslope)) Equation (2)
In Equation 2, Y represents % inhibition, X is the log value of the test compound concentration. IC50 was the concentration of compound where half of maximal inhibition was achieved.
All data was analyzed with IDBS XLfit5 software (ID Business Solutions Ltd., UK).

Chain of BTK (Q06187 whole entry): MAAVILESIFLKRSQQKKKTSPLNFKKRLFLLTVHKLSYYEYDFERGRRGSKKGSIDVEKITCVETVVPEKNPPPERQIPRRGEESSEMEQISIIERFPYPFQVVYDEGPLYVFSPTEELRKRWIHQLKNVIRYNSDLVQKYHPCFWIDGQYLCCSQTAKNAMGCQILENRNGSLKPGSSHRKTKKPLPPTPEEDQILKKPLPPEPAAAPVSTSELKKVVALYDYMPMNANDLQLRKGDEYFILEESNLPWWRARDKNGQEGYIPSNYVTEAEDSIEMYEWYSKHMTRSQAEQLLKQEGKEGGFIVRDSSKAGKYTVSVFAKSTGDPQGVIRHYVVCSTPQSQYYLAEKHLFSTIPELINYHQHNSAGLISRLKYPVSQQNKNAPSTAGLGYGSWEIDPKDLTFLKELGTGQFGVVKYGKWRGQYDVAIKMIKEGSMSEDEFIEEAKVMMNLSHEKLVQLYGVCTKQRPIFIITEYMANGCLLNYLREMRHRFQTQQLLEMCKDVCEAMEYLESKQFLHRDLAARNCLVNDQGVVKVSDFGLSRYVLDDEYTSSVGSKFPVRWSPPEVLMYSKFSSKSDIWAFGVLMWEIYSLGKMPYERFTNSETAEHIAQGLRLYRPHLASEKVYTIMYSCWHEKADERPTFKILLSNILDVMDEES

IC50 [nM]	Compound
< 500	C=CC(=O)Nc1cccc(-c2ccc(C(N)=O)c(-c3ccc(Oc4ccccc4)cc3)n2)c1 [Example 1, 6-(3-acrylamidophenyl)-2-(4-phenoxyphenyl)nicotinamide]
< 500	C=CC(=O)Nc1ccc(-c2ccc(C(N)=O)c(-c3ccc(Oc4ccccc4)cc3)n2)cc1 [Example 7, 6-(4-acrylamidophenyl)-2-(4-phenoxyphenyl)nicotinamide]
< 500	C=CC(=O)N1CCCC(c2ccc(C(N)=O)c(-c3ccc(Oc4ccccc4)cc3)n2)C1 (stereo not shown) [Example 8, 6-(1-acryloylpiperidin-3-yl)-2-(4-phenoxyphenyl)nicotnamide]
500 to 1000	C=CC(=O)NC1CCN(c2ccc(C(N)=O)c(-c3ccc(Oc4ccccc4)cc3)n2)CC1 [Example 9, 6-(4-acrylamidopiperidin-1-yl)-2-(4-phenoxyphenyl)nicotinamide]
< 500	C=CC(=O)NC1CCN(c2ccc(C(N)=O)c(-c3ccc(Oc4ccccc4)cc3)n2)C1 (stereo not shown) [Example 10, 6-(3-acrylamidopyrrolidin-1-yl)-2-(4-phenoxyphenyl)nicotinamide]
< 500	C=CC(=O)N1CCCC(n2cc(C(N)=O)c(-c3ccc(Oc4ccccc4)cc3)n2)C1 (stereo not shown) [Example 11, 1-(1-acryloylpiperidin-3-yl)-3-(4-phenoxyphenyl)-1H-pyrazole-4-carboxamide]
< 500	C=CC(=O)N1CCC(n2cc(C(N)=O)c(-c3ccc(Oc4ccccc4)cc3)n2)CC1 [Example 12, 1-(1-acryloylpiperidin-4-yl)-3-(4-phenoxyphenyl)-1H-pyrazole-4-carboxamide]
< 500	C=CC(=O)N1CCC(n2cc(C(N)=O)c(-c3ccc(Oc4ccccc4)cc3)n2)C1 (stereo not shown) [Example 13, 1-(1-acryloylpyrrolidin-3-yl)-3-(4-phenoxyphenyl)-1H-pyrazole-4-carboxamide]
≥ 1000	NC(=O)c1cn(C2CNC2)nc1-c1ccc(Oc2ccccc2)cc1 [Example 14, 1-(azetidin-3-yl)-3-(4-phenoxyphenyl)-1H-pyrazole-4-carboxamide]
< 500	C=CC(=O)N1CC(n2cc(C(N)=O)c(-c3ccc(Oc4ccccc4)cc3)n2)C1 [Example 15, 1-(1-acryloylazetidin-3-yl)-3-(4-phenoxyphenyl)-1H-pyrazole-4-carboxamide]
< 500	C=CC(=O)Nc1ccc(-n2cc(C(N)=O)c(-c3ccc(Oc4ccccc4)cc3)n2)cc1 [Example 16, 1-(4-acrylamidophenyl)-3-(4-phenoxyphenyl)-1H-pyrazole-4-carboxamide]
< 500	NC(=O)c1cn(-c2cccc(N)c2)nc1-c1ccc(Oc2ccccc2)cc1 [Example 17, 1-(3-aminophenyl)-3-(4-phenoxyphenyl)-1H-pyrazole-4-carboxamide]
< 500	C=CC(=O)Nc1cccc(-n2cc(C(N)=O)c(-c3ccc(Oc4ccccc4)cc3)n2)c1 [Example 18, 1-(3-acrylamidophenyl)-3-(4-phenoxyphenyl)-1H-pyrazole-4-carboxamide]
< 500	C=CC(=O)N1CC[C@H](n2cc(C(N)=O)c(-c3ccc(Oc4ccccc4)cc3)n2)C1 [Example 19, (S)-1-(1-acryloylpyrrolidin-3-yl)-3-(4-phenoxyphenyl)-1H-pyrazole-4-carboxamide]
< 500	C=CC(=O)N1CC[C@@H](n2cc(C(N)=O)c(-c3ccc(Oc4ccccc4)cc3)n2)C1 [Example 20, (R)-1-(1-acryloylpyrrolidin-3-yl)-3-(4-phenoxyphenyl)-1H-pyrazole-4-carboxamide]
< 500	C=CC(=O)N1CCC(c2ncc(C(N)=O)c(-c3ccc(Oc4ccccc4)cc3)n2)CC1 [Example 21, 2-(1-acryloylpiperidin-4-yl)-4-(4-phenoxyphenyl)pyrimidine-5-carboxamide]
< 500	C=CC(=O)N1CCC(c2ncc(C(N)=O)c(-c3ccc(Oc4ccccc4)cc3)n2)C1 (stereo not shown) [Example 22, 2-(1-acryloylpyrrolidin-3-yl)-4-(4-phenoxyphenyl)pyrimidine-5-carboxamide]
< 500	C=CC(=O)N1CCC(c2ccc(C(N)=O)c(-c3ccc(Oc4ccccc4)cc3)n2)C1 (stereo not shown) [Example 23, 6-(1-acryloylpyrrolidin-3-yl)-2-(4-phenoxyphenyl)pyridine-3-carboxamide]

IC50 [nM]	Compound
500 to 1000	C=CC(=O)N1CCC(c2ccc(C#N)c(-c3ccc(Oc4ccccc4)cc3)n2)CC1 [Example 24, 6-(1-acryloylpiperidin-4-yl)-2-(4-phenoxyphenyl)pyridine-3-carbonitrile]
< 500	CN(C)C/C=C/C(=O)N1CCN(c2ccc(C(N)=O)c(-c3ccc(Oc4ccccc4)cc3)n2)CC1 [Example 25, (E)-6-(4-(4-(dimethylamino)but-2-enoyl)piperazin-1-yl)-2-(4-phenoxyphenyl)nicotinamide]
< 500	C=CC(=O)N1CCN(c2ccc(C(=O)O)c(-c3ccc(Oc4ccccc4)cc3)n2)CC1 [Example 26, 6-(4-acryloylpiperazin-1-yl)-2-(4-phenoxyphenyl)pyridine-3-carboxylic acid]
≥ 1000	C=CC(=O)N1CCN(c2ccc(C(N)=O)c(-c3ccc(Oc4ccc(C#N)cc4)cc3)n2)CC1 [Example 27, 6-(4-acryloylpiperazin-1-yl)-2-(4-(4-cyanophenoxy)phenyl)nicotinamide]
< 500	C=CC(=O)N1CCN(c2ccc(C(N)=O)c(-c3ccc(OC4CCCCC4)cc3)n2)CC1 [Example 28, 6-(4-acryloylpiperazin-1-yl)-2-(4-(cyclohexyloxy)phenyl)nicotinamide]
< 500	C=CC(=O)N1CCN(c2ccc(C(N)=O)c(-c3ccc(C)c(OC)c3)n2)CC1 [Example 29, 6-(4-acryloylpiperazin-1-yl)-2-(3-methoxy-4-methylphenyl)nicotinamide]
≥ 1000	C=CC(=O)N1CCN(c2ccc(C(N)=O)c(-c3ccc(F)c(OC)c3)n2)CC1 [Example 30, 6-(4-acryloylpiperazin-1-yl)-2-(4-fluoro-3-methoxyphenyl)nicotinamide]
500 to 1000	C=CC(=O)N1CCN(c2ccc(C(N)=O)c(-c3ccc(Oc4ccccc4)nc3)n2)CC1 [Example 31, 6-(4-acryloylpiperazin-1-yl)-6′-phenoxy-2,3′-bipyridine-3-carboxamide]
< 500	C=CC(=O)N1CCN(c2ccc(C(N)=O)c(-c3ccc(Oc4ccccn4)cc3)n2)CC1 [Example 32, 6-(4-acryloylpiperazin-1-yl)-2-(4-(pyridin-2-yloxy)phenyl)nicotinamide]
≥ 1000	C=CC(=O)N1CCN(c2ccc(C(N)=O)c(-c3ccc(Cl)cc3)n2)CC1 [Example 33, 6-(4-acryloylpiperazin-1-yl)-2-(4-chlorophenyl)nicotinamide]
< 500	CN(C)C/C=C/C(=O)N1CCC(n2cc(C(N)=O)c(-c3ccc(Oc4ccccc4)cc3)n2)C1 (stereo not shown) [Example 34, 1-(1-(4-(dimethylamino)but-2-enoyl)pyrrolidin-3-yl)-3-(4-phenoxyphenyl)-1H-pyrazole-4-carboxamide]
< 500	C=CC(=O)N1CCN(c2ccc(C(N)=O)c(-c3ccc(Oc4cccc(F)c4)cc3)n2)CC1 [Example 35, 6-(4-acryloylpiperazin-1-yl)-2-(4-(3-fluorophenoxy)phenyl)nicotinamide]
< 500	C=CC(=O)N1CCN(c2ccc(C(N)=O)c(-c3ccc(Oc4ccccc4)c(F)c3)n2)CC1 [Example 36, 6-(4-acryloylpiperazin-1-yl)-2-(3-fluoro-4-phenoxyphenyl)nicotinamide]
< 500	C=CC(=O)N1CCN(c2ccc(C(N)=O)c(-c3ccc(Oc4ccc(F)cc4)cc3)n2)CC1 [Example 37, 6-(4-acryloylpiperazin-1-yl)-2-(4-(4-fluorophenoxy)phenyl)nicotinamide]
< 500	C=CC(=O)N1CCN(c2ccc(C(N)=O)c(-c3ccc(Oc4ccccc4F)cc3)n2)CC1 [Example 38, 6-(4-acryloylpiperazin-1-yl)-2-(4-(2-fluorophenoxy)phenyl)nicotinamide]
< 500	C=CC(=O)N1CCN(c2ccc(C(N)=O)c(-c3ccc(Oc4ccccc4)cc3F)n2)CC1 [Example 39, 6-(4-acryloylpiperazin-1-yl)-2-(2-fluoro-4-phenoxyphenyl)nicotinamide]
< 500	C=CC(=O)N1CCCC(c2nc(-c3ccc(Oc4ccccc4)cc3)c(C(N)=O)s2)C1 (stereo not shown) [Example 40, 2-(1-acryloylpiperidin-3-yl)-4-(4-phenoxyphenyl)thiazole-5-carboxamide]

Compound	IC50 [nM]
NC(=O)c1ccc(C2CCNCC2)nc1-c1ccc(Oc2ccccc2)cc1 [Example 2, 2-(4-phenoxyphenyl)-6-(piperidin-4-yl)nicotinamide]	≥ 1000
NC(=O)c1ccc(N2CCNCC2)nc1-c1ccc(Oc2ccccc2)cc1 [Example 4, 2-(4-phenoxyphenyl)-6-(piperazin-1-yl)nicotinamide]	≥ 1000
